Experimental data from patent US20240132445A1, “PHENOL DERIVATIVE AND APPLICATION THEREOF IN MEDICAMENTS” (priority 2021, published 2024).

What was measured:
in vivo [1] = conditions: both, ICR, mouse, in vivo, iv
Protocol: (§1) SPF-grade ICR mice, each weighing 18-22 g, half male and half female, were used. A well-established mouse anesthesia model was used to study the general anesthesia effect of the compound of the present invention. The compounds were formulated with solvents of 10% DMSO, 15% solutol (HS15) and 75% saline to the desired concentration, for further use. After adapting to the experimental environment, the experimental animals were fasted with water available for 12 h, and were administered via intravenous injection at an administration volume of 10 mL/kg. Then the anesthesia induction time (the time period from drug administration to disappearance of the righting reflex) and the anesthesia maintenance time (the time period from disappearance of the righting reflex to recovery of the righting reflex) were recorded. Indicators including the median effective dose (ED50), median lethal dose (LD50), therapeutic index (TI, i.e. LD50/ED50), anesthesia induction time, anesthesia maintenance time and maximum tolerated dose were used to evaluate the effect and safety of anesthesia.

ICR mice = experiment: animal or person; conditions: for ED50: Mus musculus
Protocol: as §1

Beagle dogs = experiment: Hemodynamic effect study in conscious Beagle dogs (telemetry); type: in vivo; conditions: iv, control group 3 2 mg/kg, compound 20 0.5 and 1 mg/kg, within 1 h, recovery after 1 h
Protocol: The experiment used an emka PACK 4G telemetry system to detect the effects of intravenous injection of control group 3 and compound 20 on electrocardiogram, blood pressure and body temperature in conscious Beagle dogs, providing reference information for evaluating the safety of clinical use.
Four Beagle dogs were subjected to crossover administration, with a vehicle control (5% DMSO+10% solutol+85% Saline), control group 3 (2 mg/kg), compound 20 (0.5 mg/kg) and compound 20 (1 mg/kg) for each intravenous injection, with an administration volume of 2 mL/kg. Observations were respectively conducted before administration and within 1 h after administration on the day of administration. Anal temperature was measured before administration and at 30 min, 1 h, 2 h and 3 h after administration during each administration period; and electrocardiogram parameters were continuously collected from 0.5 h before administration to 3 h after administration during each administration period. Blood pressure was collected at 15 min after collection was started, and was collected at 2 min, 5 min, 10 min, 20 min, 30 min, 1 h, 2 h and 3 h after administration. The electrocardiogram, blood pressure data, body temperature, and clinical observation results on the day of administration at various time points including before administration (at 30 min after collection was started) and at 2 min, 5 min, 10 min, 20 min, 30 min, 1 h, 2 h and 3 h after administration were analysed and evaluated.

[2] = Pharmacokinetic study in Beagle dogs; type: in vivo; conditions: male, dog, plasma, iv, 0.5 mg/kg
Protocol: Six male Beagle dogs (6-10 kg) were randomized into 2 groups (n=3): control group 3 and compound 20. The […] were administered via intravenous injection at 0.5 mg/kg (control group 3) and 0.5 mg/kg (compound 20), respectively, with an administration volume of 1 mL/kg and a vehicle of 5% DMSO+10% solutol (HS15)+85% Saline. Blood samples were taken before administration and at 2 min, 5 min, 10 min, 20 min, 30 min, 1 h, 1.5 h, 2 h and 3 h after administration. Plasma samples were taken by centrifugation, and stored in a −80° C. refrigerator until LC-MS analysis to be tested. After sample processing, quantitative analysis of substances in plasma was conducted using LCMS/MS to detect the concentration of prototype compounds in the plasma. The plasma concentration/time curve obtained in this way was used to calculate pharmacokinetic parameters by a validated pharmacokinetic computer program.

[3] = Pharmacokinetic study in rats; type: in vivo, SD rats; conditions: male, Sprague-Dawley, rat, plasma, iv, 1 mg/kg
Protocol: Twelve male SD rats (200-300 g) were randomized into 2 groups (n=6): control group 3 and compound 20. The rats were administered via intravenous injection at 1 mg/kg (control group 3) and 1 mg/kg (compound 20), respectively, with an administration volume of 5 mL/kg and a vehicle of 5% DMSO+10% solutol (HS15)+85% Saline. Blood samples were taken before administration and at 2 min, 4 min, 8 min, 12 min, 15 min, 30 min, 1 h, 1.5 h and 2 h after administration. Plasma samples were taken by centrifugation, and stored in a −80° C. refrigerator until LC-MS analysis to be tested. After sample processing, quantitative analysis of substances in plasma was conducted using LCMS/MS to detect the concentration of prototype compounds in the plasma. The plasma concentration/time curve obtained in this way was used to calculate pharmacokinetic parameters by a validated pharmacokinetic computer program.

in vivo [4] = type: in vivo, rats; conditions: both sexes, Sprague-Dawley, rat, in vivo, iv
Protocol: (§2) SD rats, half male and half female, were fasted with water available for 12 h, and were administered via intravenous injection at an administration volume of 10 mL/kg. Then the anesthesia induction time (the time period from drug administration to disappearance of the righting reflex), the anesthesia maintenance time (the time period from disappearance of the righting reflex to recovery of the righting reflex and revival) and the anesthesia recovery time (the time period from revival to complete recovery) were recorded. Indicators including the median effective dose (ED50), median lethal dose (LD50), therapeutic index (TI, i.e. LD50/ED50), anesthesia induction time, anesthesia maintenance time and maximum tolerated dose were used to evaluate the effect and safety of anesthesia.

SD rats = experiment: animal or person; type: in vivo
Protocol: as §2

[5] = mice, iv, administration to disappearance of righting reflex
[6] = mice, iv, disappearance to recovery of righting reflex

Row | SMILES | LD50 (in vivo [1]) [mg/kg] | MTD (in vivo [1]) [mg/kg] | ED50 (ICR mice; iv) [mg/kg] | TI (ICR mice; mice, LD50/ED50) | Anesthesia induction time (ICR mice; [5]) [s] | Anesthesia maintenance time (ICR mice; [6]) [s] | other results
1 | CC(C)c1cccc(C(C)S(C)(=O)=O)c1O (stereo not shown) [Compound 1, 2-isopropyl-6-(1-(methylsulfonyl)ethyl)phenol] | 35 | 24 | 8 | 4.4 | 60 | 255 | 
2 | CC(C)c1cccc(C(C)[S+](C)[O-])c1O (stereo not shown) [Compound 2, 2-isopropyl-6-(1-(methylsulfinyl)ethyl)phenol] | 17 | 10 | 6 | 3.8 | 2 | 690 | 
3 | CC(c1cccc(C(C)S(C)(=O)=O)c1O)C1CC1 (stereo not shown) [Compound 4, 2-(1-cyclopropylethyl)-6-(1-(methylsulfonyl)ethyl)phenol] | 10 | 4 | 2 | 5.0 | 2 | 356 | 
4 | CC(c1cccc(C(C)[S+](C)[O-])c1O)C1CC1 (stereo not shown) [Compound 5, 2-(1-cyclopropylethyl)-6-(1-(methylsulfinyl)ethyl)phenol] | 10 | 8 | 6 | 1.7 | 2 | 1638 | 
5 | CC(c1cccc(C(C)S(=O)(=O)C(C)C)c1O)C1CC1 (stereo not shown) [Compound 6, 2-(1-cyclopropylethyl)-6-(1-(isopropylsulfonyl)ethyl)phenol] | 34 | 22 | 11 | 3.1 | 5 | 579 | 
6 | CCS(=O)(=O)C(C)c1cccc(C(C)C2CC2)c1O (stereo not shown) [Compound 11, 2-(1-cyclopropylethyl)-6-(1-(ethylsulfonyl)ethyl)phenol] | 11 | 6 | 2 | 5.5 | 22 | 560 | 
7 | CCC(c1cccc(C(C)C2CC2)c1O)S(C)(=O)=O (stereo not shown) [Compound 14, 2-(1-cyclopropylethyl)-6-(1-(methylsulfonyl)propyl)phenol] | 12 | 9 | 4 | 3.0 | 2 | 499 | 
8 | CCS(=O)(=O)[C@H](C)c1cccc([C@@H](C)C2CC2)c1O [Compound 21, 2-((S)-1-cyclopropylethyl)-6-((R)-1-(ethylsulfonyl)ethyl)phenol] | 6 | 3.5 | 2.5 | 2.4 | 2 | 354 | 
9 | CCS(=O)(=O)[C@@H](C)c1cccc([C@@H](C)C2CC2)c1O [Compound 22, 2-((S)-1-cyclopropylethyl)-6-((S)-1-(ethylsulfonyl)ethyl)phenol] | 18 | 9 | 5 | 3.6 | 2 | 384 | 
10 | CCS(=O)(=O)[C@H](C)c1cccc([C@H](C)C2CC2)c1O [Compound 23, 2-((R)-1-cyclopropylethyl)-6-((R)-1-(ethylsulfonyl)ethyl)phenol] | 14 | 10 | 7 | 2 | 2 | 294 | 
11 | CC(C)c1cccc(C(C)C)c1O [Control group 1, propofol, reference compound] | 31 |  | 12 |  |  |  | Anesthesia induction time (ICR mice; mouse, in vivo): 19 s; Anesthesia maintenance time (ICR mice; mouse, in vivo): 586 s; MTD (ICR mice; mouse, in vivo, iv): 20 mg/kg
12 | CC(C)c1cccc(C(C)C2CC2)c1O (stereo not shown) [Control group 2, ciprofol, reference compound] | 17 | 9 | 3.5 |  |  |  | Anesthesia induction time (ICR mice; mouse, in vivo): 2 s; Anesthesia maintenance time (ICR mice; mouse, in vivo): 534 s; TI (ICR mice; mouse, in vivo): 4.9
13 | CC(C)c1cccc([C@H](C)C2CC2)c1O [Control group 3, ciprofol, reference compound] | 6 | 3.1 | 1.2 |  |  |  | change in heart rate after administration (Beagle dogs): slow down in heart rate; AUC(0-t) [2]: 145 ng·h/mL; half-life [2]: 37.8 min; AUC(0-t) [3]: 142 ng·h/mL; half-life [3]: 50.6 min; Anesthesia induction time (ICR mice; mouse, in vivo): 2 s; Anesthesia maintenance time (ICR mice; mouse, in vivo): 521 s; TI (ICR mice; mouse, in vivo): 5; LD50 (in vivo [4]): 5.6 mg/kg; MTD (in vivo [4]): 4 mg/kg; ED50 (SD rats; Rattus norvegicus, iv): 1.1 mg/kg; Anesthesia induction time (SD rats; rat, in vivo): 34 s; Anesthesia maintenance time (SD rats; rat, in vivo): 409 s; TI (SD rats; rat, in vivo): 5.1
